Data reported in ChEMBL document CHEMBL1909046, “DrugMatrix in vitro pharmacology data”.
pIC50, pKi: −log10 of the molar value.

Key:
[1] = molecular target: T1, Alpha-1B adrenergic receptor (Rattus norvegicus, UniProt P15823); assay: DRUGMATRIX: Alpha-1B adrenergic receptor radioligand binding (ligand: prazosin); format: cell membranes, Wistar, Liver, Membrane; conditions: Not Active = under 50% inhibition at 10 µM
T1 sequence (P15823 whole entry): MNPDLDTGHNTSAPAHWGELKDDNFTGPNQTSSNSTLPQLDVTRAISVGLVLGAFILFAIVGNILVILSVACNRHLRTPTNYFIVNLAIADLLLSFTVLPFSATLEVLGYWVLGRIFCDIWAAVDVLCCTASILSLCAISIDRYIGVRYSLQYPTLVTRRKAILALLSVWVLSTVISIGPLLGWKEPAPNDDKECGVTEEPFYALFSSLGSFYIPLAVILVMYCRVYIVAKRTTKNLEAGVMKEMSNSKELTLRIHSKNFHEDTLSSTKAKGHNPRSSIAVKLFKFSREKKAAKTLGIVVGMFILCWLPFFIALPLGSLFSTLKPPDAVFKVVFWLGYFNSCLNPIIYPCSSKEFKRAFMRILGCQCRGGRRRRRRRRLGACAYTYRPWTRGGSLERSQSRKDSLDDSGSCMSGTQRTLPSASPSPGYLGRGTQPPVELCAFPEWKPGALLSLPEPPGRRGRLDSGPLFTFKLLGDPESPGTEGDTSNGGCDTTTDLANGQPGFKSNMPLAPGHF

[2] = molecular target: Sodium-dependent noradrenaline transporter (Homo sapiens, UniProt P23975); assay: DRUGMATRIX: Norepinephrine Transporter radioligand binding (ligand: [125I] RTI-55); format: cell membranes, MDCK, Membrane; conditions: mdck; Not Active = under 50% inhibition at 10 µM
[3] = DRUGMATRIX: Glutamate, AMPA radioligand binding (ligand: [3H] AMPA); format: cell membranes, Rattus norvegicus, Wistar, Cerebral cortex, Membrane; conditions: Not Active = under 50% inhibition at 10 µM
[4] = DRUGMATRIX: Glutamate, NMDA, Phencyclidine radioligand binding (ligand: [3H] TCP); format: cell membranes, Rattus norvegicus, Wistar, Cerebral cortex, Membrane; conditions: Not Active = under 50% inhibition at 10 µM
[5] = molecular target: Mitogen-activated protein kinase 3 (Homo sapiens, UniProt P27361); assay: DRUGMATRIX: Protein Serine/Threonine Kinase, ERK1 enzyme inhibition (substrate: Myelin Basic Protein); design: species or system Escherichia coli; conditions: Not Active = under 50% inhibition at 10 µM
Adenosine receptor A2a = Adenosine receptor A2a (Homo sapiens, UniProt P29274); assay: DRUGMATRIX: Adenosine A2A radioligand binding (ligand: […]); format: cell membranes, HEK293, Membrane; conditions: Not Active = under 50% inhibition at 10 µM; for IC50: hek293
Chain of Adenosine receptor A2a (P29274 whole entry): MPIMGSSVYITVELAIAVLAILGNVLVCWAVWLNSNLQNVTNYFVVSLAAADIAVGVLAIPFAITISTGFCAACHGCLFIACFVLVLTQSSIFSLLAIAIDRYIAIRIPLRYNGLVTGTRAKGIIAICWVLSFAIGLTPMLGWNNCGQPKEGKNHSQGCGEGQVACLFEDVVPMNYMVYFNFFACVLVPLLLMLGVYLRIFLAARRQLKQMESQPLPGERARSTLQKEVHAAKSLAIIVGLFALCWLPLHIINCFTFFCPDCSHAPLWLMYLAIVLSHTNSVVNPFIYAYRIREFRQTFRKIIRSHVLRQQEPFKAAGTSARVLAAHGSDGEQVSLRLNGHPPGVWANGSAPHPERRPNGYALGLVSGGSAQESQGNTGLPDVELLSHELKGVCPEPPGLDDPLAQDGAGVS

Chain of Mitogen-activated protein kinase 3 (P27361 whole entry): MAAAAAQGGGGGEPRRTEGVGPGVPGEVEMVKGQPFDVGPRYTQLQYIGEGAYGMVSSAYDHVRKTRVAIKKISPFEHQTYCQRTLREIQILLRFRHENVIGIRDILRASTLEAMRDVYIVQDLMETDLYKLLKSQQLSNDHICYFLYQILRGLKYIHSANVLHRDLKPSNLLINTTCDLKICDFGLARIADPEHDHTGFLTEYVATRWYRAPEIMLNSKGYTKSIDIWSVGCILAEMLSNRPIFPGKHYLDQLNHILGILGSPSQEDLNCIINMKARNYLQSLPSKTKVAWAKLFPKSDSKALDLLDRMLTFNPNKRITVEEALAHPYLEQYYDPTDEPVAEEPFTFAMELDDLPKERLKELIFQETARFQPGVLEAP
Chain of Sodium-dependent noradrenaline transporter (P23975 whole entry): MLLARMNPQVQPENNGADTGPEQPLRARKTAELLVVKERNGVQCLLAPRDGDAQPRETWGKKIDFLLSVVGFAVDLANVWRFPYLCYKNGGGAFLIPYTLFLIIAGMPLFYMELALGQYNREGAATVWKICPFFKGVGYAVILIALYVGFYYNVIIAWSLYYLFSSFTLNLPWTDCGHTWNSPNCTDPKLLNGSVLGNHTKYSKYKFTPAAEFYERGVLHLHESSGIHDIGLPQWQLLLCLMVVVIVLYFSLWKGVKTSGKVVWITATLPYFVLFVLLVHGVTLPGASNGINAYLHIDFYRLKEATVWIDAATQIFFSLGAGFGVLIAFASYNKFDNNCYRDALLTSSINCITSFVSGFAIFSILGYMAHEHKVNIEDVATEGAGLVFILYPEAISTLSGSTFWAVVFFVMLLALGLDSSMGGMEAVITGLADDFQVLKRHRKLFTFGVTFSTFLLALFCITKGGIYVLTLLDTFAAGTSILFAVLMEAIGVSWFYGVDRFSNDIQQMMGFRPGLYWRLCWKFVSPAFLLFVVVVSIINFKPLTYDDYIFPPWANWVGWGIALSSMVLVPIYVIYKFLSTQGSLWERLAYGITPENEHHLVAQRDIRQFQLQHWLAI

Compound	IC50 [1]	IC50 [2]	IC50 [3]	Ki [3]	IC50 [4]	Ki [4]	IC50 [5]	IC50 (Adenosine receptor A2a)	pIC50 ([1]; read-out: IC50)	pKi ([1]; read-out: Ki)	pIC50 (Adenosine receptor A2a; read-out: IC50)	pKi (Adenosine receptor A2a; read-out: Ki)
CN(C(=O)CCCOc1ccc2[nH]c(=O)ccc2c1)C1CCCCC1 [CILOSTAMIDE]	Not Active	Not Active	Not Active	Not Active	Not Active	Not Active	Not Active	Not Active	–	–	–	–
CC(C)(Oc1ccc(C2CC2(Cl)Cl)cc1)C(=O)O (configuration not stated) [CIPROFIBRATE]	Not Active	Not Active	Not Active	Not Active	Not Active	Not Active	Not Active	Not Active	–	–	–	–
Cc1cn[nH]c1 [FOMEPIZOLE]	Not Active	Not Active	Not Active	Not Active	Not Active	Not Active	Not Active	Not Active	–	–	–	–
CCc1oc2ccccc2c1C(=O)c1cc(Br)c(O)c(Br)c1 [BENZBROMARONE]	Not Active	Not Active	Not Active	Not Active	Not Active	Not Active	Not Active	Not Active	–	–	–	–
CN1C[C@H](C(=O)N[C@]2(C)O[C@@]3(O)[C@@H]4CCCN4C(=O)[C@H](Cc4ccccc4)N3C2=O)C[C@@H]2c3cccc4[nH]cc(c34)C[C@H]21 [DIHYDROERGOTAMINE]	–	Not Active	Not Active	Not Active	Not Active	Not Active	Not Active	Not Active	8.09	8.35	–	–
CNC(=C[N+](=O)[O-])NCCSCc1csc(CN(C)C)n1 [NIZATIDINE]	Not Active	Not Active	Not Active	Not Active	Not Active	Not Active	Not Active	Not Active	–	–	–	–
CCC[C@@H]1C[C@@H](C(=O)N[C@@H]([C@H]2O[C@H](SC)[C@H](O)[C@@H](O)[C@H]2O)[C@H](C)Cl)N(C)C1 [CLINDAMYCIN]	Not Active	Not Active	Not Active	Not Active	Not Active	Not Active	Not Active	Not Active	–	–	–	–
CC(=O)O[C@]1(C(C)=O)CC[C@H]2[C@@H]3C=C(Cl)C4=CC(=O)[C@@H]5C[C@@H]5[C@]4(C)[C@H]3CC[C@@]21C [CYPROTERONE ACETATE]	Not Active	Not Active	Not Active	Not Active	Not Active	Not Active	Not Active	Not Active	–	–	–	–
CN(Cc1cnc2nc(N)nc(N)c2n1)c1ccc(C(=O)N[C@@H](CCC(=O)O)C(=O)O)cc1 [METHOTREXATE]	Not Active	Not Active	Not Active	Not Active	Not Active	Not Active	Not Active	Not Active	–	–	–	–
C/C=C\c1ccc(O)c(OC)c1 [ISOEUGENOL]	Not Active	Not Active	Not Active	Not Active	Not Active	Not Active	Not Active	Not Active	–	–	–	–
Cc1cnc(C(=O)NCCc2ccc(S(=O)(=O)NC(=O)NC3CCCCC3)cc2)cn1 [GLIPIZIDE]	Not Active	Not Active	Not Active	Not Active	Not Active	Not Active	–	Not Active	–	–	–	–
C#C[C@]1(O)CC[C@H]2[C@@H]3CCC4=Cc5oncc5C[C@]4(C)[C@H]3CC[C@@]21C [DANAZOL]	Not Active	–	Not Active	Not Active	Not Active	Not Active	Not Active	Not Active	–	–	–	–
N=C(N)N/N=C/c1c(Cl)cccc1Cl [GUANABENZ]	–	Not Active	Not Active	Not Active	Not Active	Not Active	Not Active	Not Active	–	–	–	–
Cc1c(N(C)CS(=O)(=O)[O-])c(=O)n(-c2ccccc2)n1C.[Na+] [DIPYRONE SODIUM]	Not Active	Not Active	Not Active	Not Active	Not Active	Not Active	–	Not Active	–	–	–	–
C#C[C@]1(O)CC[C@H]2[C@@H]3CCc4cc(O)ccc4[C@H]3CC[C@@]21C [ETHINYL ESTRADIOL]	Not Active	–	Not Active	Not Active	Not Active	Not Active	Not Active	–	–	–	4.68	4.93
